{
  "source": "patent US20260284015A1",
  "about": "“DOSAGE REGIME OF CRINECERFONT FOR TREATING CONGENITAL ADRENAL HYPERPLASIA” (Neurocrine Biosciences, Inc., priority 2023, published 2026)",
  "origin": "cited, not measured here",
  "data": [
    {"settings": "glucocorticoid dose conversion factor relative to hydrocortisone", "units": {"Hydrocortisone dose equivalent conversion": "×"}, "values": [
      {"smiles": "C[C@@H]1C[C@H]2[C@@H]3CCC4=CC(=O)C=C[C@]4(C)[C@@]3(F)[C@@H](O)C[C@]2(C)[C@@]1(O)C(=O)CO", "note": "[Dexamethasone]", "Hydrocortisone dose equivalent conversion": 60},
      {"smiles": "C[C@H]1C[C@@H]2[C@H]([C@@H](O)C[C@@]3(C)[C@H]2CC[C@]3(O)C(=O)CO)[C@@]2(C)C=CC(=O)C=C12", "note": "[Methylprednisolone]", "Hydrocortisone dose equivalent conversion": 4},
      {"smiles": "C[C@]12C=CC(=O)C=C1CC[C@@H]1[C@@H]2[C@@H](O)C[C@@]2(C)[C@H]1CC[C@]2(O)C(=O)CO", "note": "[Prednisolone]", "Hydrocortisone dose equivalent conversion": 4}
    ]}
  ]
}
